Measured values: EP1925205A1, “Plant propagation material treatment nematicides” (priority 2006, dated 2008)
Where “and” joins values, the source holds several entries; their conditions need not be identical. Identical values can stand only once. Like-named read-outs stand apart in the source and are kept apart here.

Columns and labels:
Type in all cases: in vivo, Meloidogyne incognita
M. incognita [1] = settings: for Efficacy (%): DS formulation, inoculated 14 days after sowing, galling 28 days after inoculation; for average rating (gall rating, score 0.1-7): tomato, untreated control 4.6
Meloidogyne spp. = test: General statement of effectiveness against nematodes by plant propagation material treatment
M. incognita [2] = test: Example 5: nematode control by tomato seed treatment, root galling (index adapted from Zeck); settings: for Efficacy (%): tomato seeds, DS formulation, inoculated 14 days after sowing, galling 28 days after inoculation
M. incognita [3] = settings: for Efficacy (%): DS formulation, inoculated 14 days after sowing, galling 28 days after inoculation; for average rating (gall rating, score 0.1-7): tomato, untreated control 4.1
M. incognita [4] = test: Example 6: nematode control by cotton seed treatment, root galling (index adapted from Zeck); settings: for Efficacy (%): cotton seeds, DS formulation, inoculated 14 days after sowing, galling 28 days after inoculation; for average rating (gall rating, score 0.1-7): cotton, untreated control 2.0
M. incognita [5] = test: Example 1: nematode control by tomato seed treatment, root galling (index adapted from Zeck), two exposure timings; settings: for Efficacy (%) at the two-week exposure / Efficacy (%) at the four-week exposure: tomato seeds, DS formulation, galling 28 days after inoculation; for Efficacy (%) at the two-week exposure: inoculated 14 days after sowing, 6000 eggs; for Efficacy (%) at the four-week exposure: inoculated 28 days after sowing, 9000 eggs; for average rating (gall rating, score 0.1-7): tomato
M. incognita [6] = test: Example 4: nematode control by tomato seed treatment, root galling (index adapted from Zeck); settings: for Efficacy (%) / germination of treated seeds: tomato seeds; for Efficacy (%): Methiocarb FS500, Thiodicarb DS, inoculated 14 days after sowing, galling 28 days after inoculation; for germination of treated seeds: FS500 formulation; for average rating (gall rating, score 0.1-7): tomato, untreated control 4.3
[7] = tomato seeds, 0.03 mg a.i./seed
[8] = tomato seeds, 0.01 mg a.i./seed
[9] = 1 mg a.i./seed, inoculated at 14 days after sowing, untreated control 3.5
[10] = 1 mg a.i./seed, inoculated at 28 days after sowing, untreated control 2.9

SMILES: CNC(=O)O/N=C/C(C)(C)SC [Aldicarb]
- Efficacy (%) (M. incognita [1]; [7]): 5.8%
- Efficacy (%) (M. incognita [1]; tomato seeds, 0.1 mg a.i./seed): 5.8%
- Efficacy (%) (M. incognita [1]; tomato seeds, 0.3 mg a.i./seed): 11.2%
- Efficacy (%) (M. incognita [1]; tomato seeds, 1 mg a.i./seed): 16.7%
- average rating (gall rating, score 0.1-7) (M. incognita [1]; 1 mg /seed): 3.8
- effective against Meloidogyne spp., for example, Meloidogyne incognita (Meloidogyne spp.): effective

SMILES: CCCCNC(=O)n1c(NC(=O)OC)nc2ccccc21 [Benomyl]
- Efficacy (%) (M. incognita [2]; 0.1 mg a.i./seed): 0%
- Efficacy (%) (M. incognita [2]; 0.3 mg a.i./seed): 2.0%
- Efficacy (%) (M. incognita [2]; 1 mg a.i./seed): 0%
- average rating (gall rating, score 0.1-7) (M. incognita [2]; tomato, 1 mg a.i./seed, untreated control 4.2): The untreated control plants have an average rating of 4.2. Benomyl at 1 mg a.i. /seed is also rated at 4.2.

SMILES: CCOP(=O)(SC(C)CC)SC(C)CC (stereo not drawn) [Cadusafos]
- germination of treated seeds (M. incognita [3]; tomato seeds, 1 mg a.i./seed): did not germinate
- Efficacy (%) (M. incognita [3]; [8]): 0%
- Efficacy (%) (M. incognita [3]; [7]): 0%
- Efficacy (%) (M. incognita [3]; tomato seeds, 0.1 mg a.i./seed): 2.0%
- Efficacy (%) (M. incognita [3]; tomato seeds, 0.3 mg a.i./seed): 14.3%
- average rating (gall rating, score 0.1-7) (M. incognita [3]; 0.3 mg /seed): 3.5
- Efficacy (%) (M. incognita [4]; 0.01 mg a.i./seed): 0%
- Efficacy (%) (M. incognita [4]; 0.03 mg a.i./seed): 0%
- Efficacy (%) (M. incognita [4]; 0.1 mg a.i./seed): 8.3%
- Efficacy (%) (M. incognita [4]; 0.3 mg a.i./seed): 77.5%
- Efficacy (%) (M. incognita [4]; 1 mg a.i./seed): 86.7%
- average rating (gall rating, score 0.1-7) (M. incognita [4]; 0.3 mg /seed): 0.5
- average rating (gall rating, score 0.1-7) (M. incognita [4]; 1 mg a.i./seed): 0.3
- effective against Meloidogyne spp., for example, Meloidogyne incognita (Meloidogyne spp.): effective

SMILES: CCOP(=S)(OCC)Oc1nc(Cl)c(Cl)cc1Cl [Chlorpyrifos]
- Efficacy (%) (M. incognita [3]; [8]): 0%
- Efficacy (%) (M. incognita [3]; [7]): 0%
- Efficacy (%) (M. incognita [3]; tomato seeds, 0.1 mg a.i./seed): 0%
- Efficacy (%) (M. incognita [3]; tomato seeds, 0.3 mg a.i./seed): 0%
- Efficacy (%) (M. incognita [3]; tomato seeds, 1 mg a.i./seed): 0%
- average rating (gall rating, score 0.1-7) (M. incognita [3]; 1 mg /seed): 4.3

SMILES: CCOP(=S)(OCC)Oc1cc(C)nc(C(C)C)n1 [Diazinon]
- Efficacy (%) (M. incognita [3]; [8]): 0%
- Efficacy (%) (M. incognita [3]; [7]): 0%
- Efficacy (%) (M. incognita [3]; tomato seeds, 0.1 mg a.i./seed): 0%
- Efficacy (%) (M. incognita [3]; tomato seeds, 0.3 mg a.i./seed): 0%
- Efficacy (%) (M. incognita [3]; tomato seeds, 1 mg a.i./seed): 0%
- average rating (gall rating, score 0.1-7) (M. incognita [3]; 1 mg /seed): 4.2

SMILES: CCOP(=S)(OCC)Oc1ccc(Cl)cc1Cl [Dichlofenthion]
- Efficacy (%) (M. incognita [3]; [8]): 0%
- Efficacy (%) (M. incognita [3]; [7]): 0%
- Efficacy (%) (M. incognita [3]; tomato seeds, 0.1 mg a.i./seed): 0%
- Efficacy (%) (M. incognita [3]; tomato seeds, 0.3 mg a.i./seed): 0%
- Efficacy (%) (M. incognita [3]; tomato seeds, 1 mg a.i./seed): 0%
- average rating (gall rating, score 0.1-7) (M. incognita [3]; 1 mg /seed): 4.7

SMILES: CNC(=O)CSP(=S)(OC)OC [Dimethoate]
- Efficacy (%) (M. incognita [3]; [8]): 0%
- Efficacy (%) (M. incognita [3]; [7]): 2.0%
- Efficacy (%) (M. incognita [3]; tomato seeds, 0.1 mg a.i./seed): 2.0%
- Efficacy (%) (M. incognita [3]; tomato seeds, 0.3 mg a.i./seed): 0%
- Efficacy (%) (M. incognita [3]; tomato seeds, 1 mg a.i./seed): 0%
- average rating (gall rating, score 0.1-7) (M. incognita [3]; 1 mg /seed): 4.3

SMILES: CCCSP(=O)(OCC)SCCC [Ethoprofos, Ethoprophos]
- germination of treated seeds (M. incognita [1]; tomato seeds, 1 mg a.i./seed): did not germinate
- Efficacy (%) (M. incognita [1]; [7]): 4.0%
- Efficacy (%) (M. incognita [1]; tomato seeds, 0.1 mg a.i./seed): 2.2%
- Efficacy (%) (M. incognita [1]; tomato seeds, 0.3 mg a.i./seed): 2.2%
- average rating (gall rating, score 0.1-7) (M. incognita [1]; 0.3 mg /seed): 4.5

SMILES: CCOP(=S)(OCC)Oc1ccc([S+](C)[O-])cc1 (stereo not drawn) [Fensulfothion]
- Efficacy (%) (M. incognita [3]; [8]): 0%
- Efficacy (%) (M. incognita [3]; [7]): 2.0%
- Efficacy (%) (M. incognita [3]; tomato seeds, 0.1 mg a.i./seed): 0%
- Efficacy (%) (M. incognita [3]; tomato seeds, 0.3 mg a.i./seed): 0%
- Efficacy (%) (M. incognita [3]; tomato seeds, 1 mg a.i./seed): 20.4%
- average rating (gall rating, score 0.1-7) (M. incognita [3]; 1 mg /seed): 3.3
- effective against Meloidogyne spp., for example, Meloidogyne incognita (Meloidogyne spp.): effective

SMILES: CCOP(=O)(SC(C)CC)N1CCSC1=O (stereo not drawn) [Fosthiazate]
- Efficacy (%) at the two-week exposure (M. incognita [5]; 0.03 mg a.i./seed): 0%
- Efficacy (%) at the four-week exposure (M. incognita [5]; 0.03 mg a.i./seed): 0%
- Efficacy (%) at the two-week exposure (M. incognita [5]; 0.1 mg a.i./seed): 40%
- Efficacy (%) at the four-week exposure (M. incognita [5]; 0.1 mg a.i./seed): 0%
- Efficacy (%) at the two-week exposure (M. incognita [5]; 0.3 mg a.i./seed): 28.6%
- Efficacy (%) at the four-week exposure (M. incognita [5]; 0.3 mg a.i./seed): 10.9%
- Efficacy (%) at the two-week exposure (M. incognita [5]; 1 mg a.i./seed): 59% and 59.4%
- Efficacy (%) at the four-week exposure (M. incognita [5]; 1 mg a.i./seed): 40%
- average rating (gall rating, score 0.1-7) (M. incognita [5]; [9]): 1.4
- average rating (gall rating, score 0.1-7) (M. incognita [5]; [10]): 1.8
- effective against Meloidogyne spp., for example, Meloidogyne incognita (Meloidogyne spp.): effective

SMILES: CCOP(=S)(OCC)Oc1nc(Cl)n(C(C)C)n1 [Isazofos]
- Efficacy (%) (M. incognita [1]; [7]): 4.0%
- Efficacy (%) (M. incognita [1]; tomato seeds, 0.1 mg a.i./seed): 2.2%
- Efficacy (%) (M. incognita [1]; tomato seeds, 0.3 mg a.i./seed): 34.8%
- Efficacy (%) (M. incognita [1]; tomato seeds, 1 mg a.i./seed): 87.0%
- average rating (gall rating, score 0.1-7) (M. incognita [1]; 1 mg /seed): 0.6
- effective against Meloidogyne spp., for example, Meloidogyne incognita (Meloidogyne spp.): effective

SMILES: CNC(=O)Oc1cc(C)c(SC)c(C)c1 [Methiocarb]
- Efficacy (%) (M. incognita [6]; 0.01 mg a.i./seed): 3.8%
- Efficacy (%) (M. incognita [6]; 0.03 mg a.i./seed): 3.8%
- Efficacy (%) (M. incognita [6]; 0.1 mg a.i./seed): 1.9%
- germination of treated seeds (M. incognita [6]; 0.3 mg /seed): only 1 seed out of 6 germinated
- Efficacy (%) (M. incognita [6]; 0.3 mg a.i./seed): 0%
- germination of treated seeds (M. incognita [6]; 1 mg a.i./seed): did not germinate
- average rating (gall rating, score 0.1-7) (M. incognita [6]; 0.1 mg /seed): 4.3
- average rating (gall rating, score 0.1-7) (M. incognita [6]; 0.3 mg /seed, only one germinated plant): 4.5

SMILES: CNC(=O)O/N=C(\SC)C(=O)N(C)C [Oxamyl]
- Efficacy (%) at the two-week exposure (M. incognita [5]; 0.03 mg a.i./seed): 7.1%
- Efficacy (%) at the four-week exposure (M. incognita [5]; 0.03 mg a.i./seed): 0%
- Efficacy (%) at the two-week exposure (M. incognita [5]; 0.1 mg a.i./seed): 0%
- Efficacy (%) at the four-week exposure (M. incognita [5]; 0.1 mg a.i./seed): 2.9%
- Efficacy (%) at the two-week exposure (M. incognita [5]; 0.3 mg a.i./seed): 0%
- Efficacy (%) at the four-week exposure (M. incognita [5]; 0.3 mg a.i./seed): 0%
- Efficacy (%) at the two-week exposure (M. incognita [5]; 1 mg a.i./seed): 0%
- Efficacy (%) at the four-week exposure (M. incognita [5]; 1 mg a.i./seed): 4.5%
- average rating (gall rating, score 0.1-7) (M. incognita [5]; [9]): 3.5
- average rating (gall rating, score 0.1-7) (M. incognita [5]; [10]): 2.8

SMILES: CCOP(=S)(OCC)SCSCC [Phorate]
- Efficacy (%) (M. incognita [1]; [7]): 22.1%
- Efficacy (%) (M. incognita [1]; tomato seeds, 0.1 mg a.i./seed): 2.2%
- Efficacy (%) (M. incognita [1]; tomato seeds, 0.3 mg a.i./seed): 2.2%
- Efficacy (%) (M. incognita [1]; tomato seeds, 1 mg a.i./seed): 5.8%
- average rating (gall rating, score 0.1-7) (M. incognita [1]; 1 mg /seed): 4.3

SMILES: CCN(CC)C(=O)C(Cl)=C(C)OP(=O)(OC)OC [Phosphamidon]
- Efficacy (%) (M. incognita [3]; [8]): 0%
- Efficacy (%) (M. incognita [3]; [7]): 2.0%
- Efficacy (%) (M. incognita [3]; tomato seeds, 0.1 mg a.i./seed): 0%
- Efficacy (%) (M. incognita [3]; tomato seeds, 0.3 mg a.i./seed): 0%
- Efficacy (%) (M. incognita [3]; tomato seeds, 1 mg a.i./seed): 0%
- average rating (gall rating, score 0.1-7) (M. incognita [3]; 1 mg /seed): 4.1

SMILES: CCOP(=S)(OCC)SCSC(C)(C)C [Terbufos]
- Efficacy (%) (M. incognita [3]; [8]): 0%
- Efficacy (%) (M. incognita [3]; [7]): 0%
- Efficacy (%) (M. incognita [3]; tomato seeds, 0.1 mg a.i./seed): 0%
- Efficacy (%) (M. incognita [3]; tomato seeds, 0.3 mg a.i./seed): 0%
- Efficacy (%) (M. incognita [3]; tomato seeds, 1 mg a.i./seed): 0%
- average rating (gall rating, score 0.1-7) (M. incognita [3]; 1 mg /seed): 4.1

SMILES: CS/C(C)=N\OC(=O)N(C)SN(C)C(=O)O/N=C(\C)SC [Thiodicarb]
- Efficacy (%) (M. incognita [6]; 0.03 mg a.i./seed): 0%
- Efficacy (%) (M. incognita [6]; 0.1 mg a.i./seed): 0%
- Efficacy (%) (M. incognita [6]; 0.3 mg a.i./seed): 0%
- Efficacy (%) (M. incognita [6]; 1 mg a.i./seed): 1.9%
- average rating (gall rating, score 0.1-7) (M. incognita [6]; 1 mg a.i./seed): 4.3
